Results: publication PMC5592744 (Frontiers in Microbiology, 2017)

Legend:
Type in all cases: biochemical
Conditions in all cases: 76 μM chalcone, FRET assay
I182A-SrtA = I182A-SrtA (Staphylococcus aureus, UniProt Q2FV99, I182A)
R197A-SrtA = R197A-SrtA (Staphylococcus aureus, UniProt Q2FV99, R197A)
V168A-SrtA = V168A-SrtA (Staphylococcus aureus, UniProt Q2FV99, V168A)

Measured: sensitivity of mutant SrtA to chalcone compared with WT-SrtA

O=C(/C=C/c1ccccc1)c1ccccc1 [chalcone]
significantly less sensitive: all assays above
